Experiments:
Assay in all cases: Bliss excess, mean over the matrix (fraction); higher = more synergy
[1] = test system: VAL (B-Cell Non-Hodgkin's Lymphoma)
Outline: (§1)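 After 24 hours at 37°C and 5% CO2 in 1536-well plates, cells in DMEM/F12 or RPMI plus 10% FBS received two-drug dose matrices for 72 hours. Viability came from CellTiter-Glo 2.0 luminescence and was scaled as inhibition, anchored at 0 by vehicle wells and at 1 by blank wells. Combination Emax is taken as the second-highest inhibition in the matrix, and Bliss excess as the observed combination effect less EA + EB − EA·EB, with EA and EB the single-agent effects.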

[2] = test system: PANC-03-27 (Pancreatic Carcinoma)
Outline: as §1

[3] = test system: LK-2 (Squamous Cell Lung Carcinoma)
Outline: as §1

[4] = test system: SHP-77 (Small Cell Lung Carcinoma)
Outline: as §1

[5] = test system: CAL-62 (Thyroid Gland Carcinoma)
Outline: as §1

[6] = test system: PC-3_[JPC-3] (Lung Adenocarcinoma)
Outline: as §1

[7] = test system: MFE-280 (Endometrial Carcinoma)
Outline: as §1

SK-MEL-2 (Melanoma) = test system: SK-MEL-2 (Melanoma)
Outline: as §1

SMILES	Bliss excess [1]	Bliss excess [2]	Bliss excess [3]	Bliss excess [4]	Bliss excess [5]	Bliss excess [6]	Bliss excess [7]	Bliss excess (SK-MEL-2 (Melanoma))
C=CCn1c(=O)c2cnc(Nc3ccc(N4CCN(C)CC4)cc3)nc2n1-c1cccc(C(C)(C)O)n1 [AZD1775] + CCc1c2c(nc3ccc(O)cc13)-c1cc3c(c(=O)n1C2)COC(=O)[C@]3(O)CC [SN-38] (first compound max 1 µM, partner max 0.3 µM)	-0.0619	-0.0585	0.0768	-0.0315	-0.0489	-0.0575	-0.0149	0.0426
N#Cc1cnc(Nc2cc(NC[C@H]3CNCCO3)c(C(F)(F)F)cn2)cn1 [SRA737] + O=c1[nH]cc(F)c(=O)[nH]1 [5-Fluorouracil] (first compound max 10 µM, 7x7, partner max 20 µM)	–	0.0112	0.0756	0.0009	-0.0187	-0.0443	-0.0423	-0.025
CS(=O)(=O)CCNCc1ccc(-c2ccc3ncnc(Nc4ccc(OCc5cccc(F)c5)c(Cl)c4)c3c2)o1 [Lapatinib] + Cn1cnc2c(F)c(Nc3ccc(Br)cc3Cl)c(C(=O)NOCCO)cc21 [Selumetinib] (first compound max 10 µM, 7x7, partner max 10 µM)	-0.0549	0.044	-0.0131	-0.02	-0.0284	-0.0292	-0.063	0.0062
Cc1nc(-c2cn3c(n2)-c2ccc(-c4cnn(C(C)(C)C(N)=O)c4)cc2OCC3)n(C(C)C)n1 [Taselisib] + O=C(Nc1ccc2[nH]nc(-c3ccncc3)c2c1)[C@@H]1CCN(CC(=O)N2CCN(c3ccc(-c4ncccn4)cc3)CC2)C1 [SCH772984] (first compound max 10 µM, 7x7, partner max 5 µM)	-0.002	0.0848	0.0371	-0.0221	0.0096	0.0293	0.0107	0.136
O=C(c1cc(Cc2n[nH]c(=O)c3ccccc23)ccc1F)N1CCN(C(=O)C2CC2)CC1 [Olaparib] + CN(CC[C@H](CSC1=CC=CC=C1)NC2=C(C=C(C=C2)S(=O)(=O)NC(=O)C3=CC=C(C=C3)N4CCC(CC4)[C@H](C5=CC=CC=C5C6=CC=C(C=C6)Cl)O)S(=O)(=O)C(F)(F)F)CCO [AZD4320] (first compound max 10 µM, 7x7, partner max 1 µM)	0.0212	-0.0341	0.0748	0.0133	-0.042	-0.0525	0.0045	-0.0397
N#Cc1cnc(Nc2cc(NC[C@H]3CNCCO3)c(C(F)(F)F)cn2)cn1 [SRA737] + C=CCn1c(=O)c2cnc(Nc3ccc(N4CCN(C)CC4)cc3)nc2n1-c1cccc(C(C)(C)O)n1 [AZD1775] (first compound max 10 µM, partner max 1 µM)	0.0116	-0.0233	0.115	0.0512	0.043	-0.0239	0.0289	0.098
CN(CCO)CC[C@H](CSc1ccccc1)Nc1ccc(S(=O)(=O)NC(=O)c2ccc(N3CCC([C@@H](O)c4ccccc4-c4ccc(Cl)cc4)CC3)cc2)cc1S(=O)(=O)C(F)(F)F [AZD4320] + CS(=O)(=O)CCNCc1ccc(-c2ccc3ncnc(Nc4ccc(OCc5cccc(F)c5)c(Cl)c4)c3c2)o1 [Lapatinib] (first compound max 1 µM, 7x7, partner max 10 µM)	0.0503	0.023	0.0876	0.159	0.0444	-0.0108	0.0411	-0.0501
C[C@@H]1COCCN1c1cc(C2([S@](C)(=N)=O)CC2)nc(-c2ccnc3[nH]ccc23)n1 [AZD6738] + C1CC(C1)(C(=O)[O-])C(=O)[O-].N.N.[Pt+2] [Carboplatin] (first compound max 10 µM, 7x7, partner max 10 µM)	-0.0465	-0.0554	-0.04	0.0138	-0.0402	-0.0326	-0.0617	-0.005
C[C@@H](Oc1cc(-c2cnn(C3CCNCC3)c2)cnc1N)c1c(Cl)ccc(F)c1Cl [Crizotinib] + Cn1cnc2c(F)c(Nc3ccc(Br)cc3Cl)c(C(=O)NOCCO)cc21 [Selumetinib] (first compound max 10 µM, 7x7, partner max 10 µM)	-0.0516	-0.0689	0.011	0.0404	-0.0219	-0.0549	-0.0544	0.0382
C=CCn1c(=O)c2cnc(Nc3ccc(N4CCN(C)CC4)cc3)nc2n1-c1cccc(C(C)(C)O)n1 [AZD1775] + Nc1ccn([C@@H]2O[C@H](CO)[C@@H](O)C2(F)F)c(=O)n1 [Gemcitabine] (first compound max 1 µM, partner max 0.3 µM)	–	-0.0383	0.117	0.0032	-0.0162	-0.035	-0.0175	-0.0156
